Data set [1] deals with Tm5a and Tm5b. In words: Apical αf9d antibody staining pixel intensity by confocal microscopy in T84 cell monolayers. The data set is classed as cell-based, human. The following applies: 2 μM oligonucleotide for 24 hours, mean±1 SD. The method, then: (§1) Cells were washed in 2% foetal bovine serum (FBS) in phosphate buffered saline (PBS) then fixed with 4% paraformaldehyde. They were permeabilised with 100% methanol, chilled to −80° C., for 20 minutes. Cells were incubated at room temperature with primary and secondary antibodies for 1 hour with washes performed with 2% FBS in PBS 3 times for 10 minutes after each incubation. Coverslips were mounted onto the slides with the anti-fade reagent DABCO.
(§2) Fluorescence was examined with a confocal laser scanning microscope (Leica Microsystems, Wetzler, Germany) using a 63× oil emersion objective. The distribution of fluorophores was measured by scanning at 488 nm for FITC and 568 nm for rhodamine using 8 line averages to eliminate noise. Images were taken in the vertical (xz) and horizontal (xy) plane. Images in the horizontal plane were constructed by overlaying sections taken at 1 μm steps from the apical to the basal region of the cells.
The pixel intensity of Tm antibody staining was measured on images obtained by confocal microscopy. Measurements were made across the apical region and across the central region of monolayers and averaged to obtain the mean pixel intensity for individual monolayers. […]

Data set [2] relates to CFTR. Kind of data set: Enzyme linked surface CFTR assay in T84 cell monolayers. The class given is cell-based, human. To be noted: for CFTR surface expression, absorbance at 655 nm normalised to the nonsense treated group: 2 μM oligonucleotide for 24 hours, mean±1 SD; for CFTR surface expression, absorbance at 655 nm normalised to the control group: forskolin stimulated T84 cell monolayers, 33 μM nocodazole for 3 hours, mean±SD. The method, then:
T84 cell monolayers cultured on collagen coated glass coverslips were incubated in either chloride buffer with 10 μM forskolin or chloride buffer only for 30 minutes at 37° C. in 5% CO2 then fixed with 4% paraformaldehyde for 20 minutes at 4° C. The T84 cell monolayers were incubated for 1 hour firstly with CFTR (MA1-935) antibody (Walker et al., 1995) diluted 1:500 followed by HRP anti-mouse IgG diluted 1:1000. T84 cell monolayers were blocked prior to each incubation for 10 minutes in PBS containing 10% FBS and washed following each incubation 4 times in PBS. The coverslips were then placed into a clean 24 well plate and incubated for 30 minutes with 500 μl of 3′3′5′5′ Tetra methyl benzidine. The supernatant from each well was transferred to a cuvette and absorbance determined at 655 nm in a Beckman DU650 spectrophotometer. Absorbance was also determined at 655 nm for primary antibody negative controls and that amount was subtracted from the absorbance in primary antibody positive monolayers to determine their assay result.
The CFTR surface expression is reported as the absorbance measured at 655 nm, normalised to the mean absorbance for the control group within individual experiments. To determine the effects of treatment, normalised absorbance at 655 nm was compared between groups. Two group comparisons were made using the Student t test.
(§3) Cultured T84 colon cancer cell monolayers grown in collagen coated 24 well plates or on plastic coverslips were used as a model of the gastrointestinal epithelium. Incubation of monolayers inoculated with EPEC ([…]) for 6-9 hours was used to model EPEC infection and was compared with HB101, a non-pathogenic control. Antisense oligonucleotides were used to reduce tropomyosin 5a and 5b expression. An immuno-colourimetric assay was used to assess CFTR surface expression and intra-cellular MQAE fluorescence was used to assess chloride efflux.

Another data set has as its system tropomyosin isoforms. In words: Immunofluorescence localisation of tropomyosin isoforms in T84 cells after treatment. The class given is cell-based, human. The following applies: for effect on polarised distribution of αf9d staining: T84 cell monolayers, 2 μM oligonucleotide for 24 hours. The method, then:
as §1, §2
Epithelial cell monolayers were trypsinalised using trypsin/EDTA and centrifuged to form a cell pellet. The cells were then resuspended in medium containing either 1 μM jasplakinolide, 20 μM cytochalasin D or 33 μM nocodazole and seeded into poly-d-lysine and collagen coated glass chamber slides. The developing monolayers were then fixed and stained at 10 minutes after seeding. The effect of nocodazole on microtubules was confirmed by staining with antibodies to β tubulin and comparing with untreated cells. Mature T84 cell monolayers were treated with medium containing 20μM cytochalasin D for 3 hours then fixed and stained. Immunofluorescence analysis was then performed as described above.
The sequence of the antisense and nonsense phosphorothioated oligonucleotides to Tm5a and Tm5b were 5′-[…] (SEQ ID NO:14) and 5′-[…] (SEQ ID NO:15) respectively. These were designed from the exon 1b sequence of the human αTMfast gene (Novy et al., 1993, Cell Motility & the Cytoskeleton 25, 267-281). T84 cell monolayers were grown to confluence on coverslips, in glass chamber slides or 24 well plates. The oligonucleotides were applied at a concentration of 2 μM with Lipofectin Reagent at 10 μg/ml according to the manufacturers instructions. The T84 cell monolayers were then incubated with the oligonucleotide for 24 hours at 37° C. in 5% CO2 after which time they were used for experiments that required oligonucleotide pretreatment.

The test system of the next data set is T84 cell monolayers. In words: MQAE chloride efflux assay. The class given is cell-based, human. The following applies: for cumulative chloride efflux at 15 minutes, percentage increase in fluorescence normalised to the nonsense group: 2 μM oligonucleotide 24 hours, 10 μM forskolin, mean±1 SD; for cumulative chloride efflux at 15 minutes, percentage increase in fluorescence normalised to the control group: nocodazole 33 μM for 3 hours, mean±SD. The method, then: T84 cell monolayers, cultured on 24 or 96 well plates were incubated in medium containing 10 mM MQAE for 16 hours. The monolayers were then washed 3 times in chloride buffer (2.4 mM Na2HPO4, 0.6 mM NaH2PO4, 1 mM K2SO4, 1 mM MgSO4, 3.4 mM KCl, 124.6 mM NaCl, 1 mM CaCl2, 10 mM glucose and 10 mM HEPES ). T84 cell monolayers were stimulated with forskolin by incubating with chloride buffer containing 10 μM forskolin for 10 minutes, after which the chloride buffer was removed and replaced with chloride free buffer (2.4 mM Na2HPO4, 0.6 mM NaH2PO4, 1 mM K2SO4, 1 mM MgSO4, 3.4 mM KNO3, 1 mM Ca(NO3)2, 124.6 mM NaNO3, 10 mM glucose and 10 mM HEPES) containing 10 μM forskolin. Repetitive fluorescence measurements were initiated immediately using a fluorescence plate reader (excitation, λ-360 nm; emission, λ-460 nm). Measurements were performed every 30 to 60 seconds for 15 minutes.
Chloride efflux was measured as the percentage increase in fluorescence between baseline and the specified time point. The percentage increase in fluorescence was normalised within experiments to the mean percentage increase in fluorescence in the control group in that experiment. To determine the effects of treatments, the normalised percentage increase in fluorescence was compared between groups. Two group comparisons were made using the Student t test.
as §3

Data set [3] has as its system CFTR. To be noted: cytochalasin D induced disruption of actin filaments; Prat et al., 1995; cited from earlier work.
In the next data set the test system is microtubules. In words: β tubulin staining to confirm effect on microtubules. The class given is cell-based, human. The following applies: T84 cells, 33 μM nocodazole. The method, then: Epithelial cell monolayers were trypsinalised using trypsin/EDTA and centrifuged to form a cell pellet. The cells were then resuspended in medium containing either 1 μM jasplakinolide, 20 μM cytochalasin D or 33 μM nocodazole and seeded into poly-d-lysine and collagen coated glass chamber slides. The developing monolayers were then fixed and stained at 10 minutes after seeding. […] Mature T84 cell monolayers were treated with medium containing 20μM cytochalasin D for 3 hours then fixed and stained. Immunofluorescence analysis was then performed as described above.

In data set [4] the test system is Tm5a and Tm5b. In words: Western blot (immunoblot) of tropomyosin isoforms in T84 cells. The following applies: 24 hours exposure, 2 μM, Western blot band density. The data set is classed as cell-based, human. The method, then: The sequence of the antisense and nonsense phosphorothioated oligonucleotides to Tm5a and Tm5b were 5′-CAC CGC CUC CAG CGA GCT (SEQ ID NO:14) and 5′-GCT CCA GCC ACG CCG ACT (SEQ ID NO:15) respectively. These were designed from the exon 1b sequence of the human αTMfast gene (Novy et al., 1993, Cell Motility & the Cytoskeleton 25, 267-281). T84 cell monolayers were grown to confluence on coverslips, in glass chamber slides or 24 well plates. The oligonucleotides were applied at a concentration of 2 μM with Lipofectin Reagent at 10 μg/ml according to the manufacturers instructions. The T84 cell monolayers were then incubated with the oligonucleotide for 24 hours at 37° C. in 5% CO2 after which time they were used for experiments that required oligonucleotide pretreatment.
Proteins were extracted from T84 cells using the method of Wessel and Flugge (Wessel and Flugge, 1984). Western blot was performed as described (Percival et al., 2000, Cell Motility & the Cytoskeleton 47, 189-208). […] Bound antibody was detected using HRP-conjugated goat anti-rabbit or goat anti-mouse IgG. The bands were detected using Western Lightening™ chemiluminescence reagent and exposure to x-ray film.
Protein expression was measured as the density of protein bands on Western blot autoradiographs using the computer program Molecular Analyst (Version 1.5, Bio Rad Laboratories, Calif., U.S.A.). […]

On to “5′-GCT CCA GCC ACG CCG ACT (GCTCCAGCCACGCCGACT; all phosphorothioate, sugars by position and methylation of C not given here) [Nonsense, Scrambled nonsense control oligonucleotide]”, for which the “apical αf9d antibody staining pixel intensity” value in the data set on Tm5a and Tm5b [1] turned out to be 150.86±48.28. Further, in the data set on CFTR [2] (T84 cell monolayers), the “CFTR surface expression, absorbance at 655 nm normalised to the nonsense treated group” value was determined as 1±0.42. Moreover, in the data set with tropomyosin isoforms, the “effect on polarised distribution of αf9d staining” value is listed as “essentially no effect on the distribution of staining”. The “cumulative chloride efflux at 15 minutes, percentage increase in fluorescence normalised to the nonsense group” value with T84 cell monolayers turned out to be 1±0.36.
Take `C=C1[C@@H](C)[C@H]2[C@H](Cc3ccccc3)NC(=O)[C@]23[C@H](OC(C)=O)/C=C/[C@@](C)(O)C(=O)[C@@H](C)C/C=C/[C@H]3[C@@H]1O` [cytochalasin D]: the “effect on chloride currents through CFTR” value in the data set with CFTR [3] is “increase chloride currents through CFTR”. Moreover, in the data set on tropomyosin isoforms (mature T84 cell monolayers, 20 μM cytochalasin D for 3 hours), the “effect on polarised distribution of αf9d staining in established monolayers” value was “eliminated the polarised distribution of αf9d staining”.
In the case of `COC(=O)Nc1nc2ccc(C(=O)c3cccs3)cc2[nH]1` [Nocodazole, nocodazole], the “microtubular structure by β tubulin staining” value in the data set on microtubules is listed as “disrupted normal microtubular structure”. In addition, the “CFTR surface expression, absorbance at 655 nm normalised to the control group” value is recorded as 0.92±0.25 in the data set on CFTR [2] and “failed to elicit any significant change” with CFTR [2] (listed as nocodazole). In addition, in the data set with tropomyosin isoforms (T84 cells pretreated in suspension before seeding (jasplakinolide 1 μM, nocodazole 33 μM)), the “distribution of 311 antibody staining 10 minutes post-seeding” value is “enrichment at the apical surface”. For the same molecule, the “cumulative chloride efflux at 15 minutes, percentage increase in fluorescence normalised to the control group” value in the data set with T84 cell monolayers was 1.01±0.43; in the data set with T84 cell monolayers (listed as nocodazole), “failed to elicit any significant change”.
Regarding “5′-CAC CGC CUC CAG CGA GCT (antisense CACCGCCUCCAGCGAGCT; all phosphorothioate, sugars by position and methylation of C not given here) [Antisense phosphorothioated oligonucleotide to Tm5a and Tm5b, targeted to exon 1b of the TPM1 gene]”, the “mean reduction in Tm5a and Tm5b levels relative to nonsense treatment” value with Tm5a and Tm5b [4] came to 54±13%. Further, the “apical αf9d antibody staining pixel intensity” value in the data set with Tm5a and Tm5b [1] is given as 53.62±31.62. The “increase in CFTR surface expression, antisense compared with nonsense controls” value in the data set on CFTR [2] (T84 cell monolayers, 2 μM for 24 hours) was 50%. In addition, the “CFTR surface expression, absorbance at 655 nm normalised to the nonsense treated group” value with CFTR [2] (T84 cell monolayers) amounted to 1.49±0.78. For the same molecule, the “effect on polarised distribution of αf9d staining” value with tropomyosin isoforms was “eliminated the polarised distribution of αf9d staining”. In the data set on T84 cell monolayers, the “cumulative chloride efflux at 15 minutes, percentage increase in fluorescence normalised to the nonsense group” value worked out at 1.47±0.41.

(Values after patent publication US20060263781A1, “Regulation of cell surface proteins” (priority 2003, published 2006).)
